{
  "source": "patent US7795378B2",
  "about": "“Peptide compositions for treatment of sexual dysfunction” (Palatin Technologies, Inc., priority 2002, dated 2010)",
  "key": {"[1]": {"biological_target": "T1, MC1-R (B16-F1 mouse melanoma cells) (Mus musculus, UniProt Q01727)", "T1 construct": "B-16 mouse melanoma cells (containing MC1-R); endogenous in cells; host or cells: B16-F1 mouse melanoma cells (membranes)", "T1 sequence (Q01727 whole entry)": "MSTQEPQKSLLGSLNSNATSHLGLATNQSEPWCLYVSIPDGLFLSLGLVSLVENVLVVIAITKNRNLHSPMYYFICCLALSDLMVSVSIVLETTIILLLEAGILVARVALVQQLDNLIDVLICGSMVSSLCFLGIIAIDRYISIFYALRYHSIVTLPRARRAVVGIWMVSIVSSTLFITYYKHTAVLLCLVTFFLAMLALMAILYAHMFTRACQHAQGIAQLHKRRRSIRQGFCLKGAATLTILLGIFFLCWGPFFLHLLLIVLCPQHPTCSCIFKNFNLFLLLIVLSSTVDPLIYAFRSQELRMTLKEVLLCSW", "assay": "Competitive inhibition binding assay with 125I-NDP-MSH, MC1 receptor", "conditions": "10 μM peptide, 0 assigned when raw inhibition between −10% and 10%, read-out: % Inhibition at 10 μM concentration at MC1-Receptor", "description": "(§1) Competitive inhibition binding assay was conducted using membranes prepared from hMC3-R, hMC4-R, hMC5-R, and B-16 mouse melanoma cells (containing MC1-R) using 0.4 nM ^125I-NDP-MSH (0.2 nM for MCL-R) (New England Nuclear, Boston, Mass., USA) in 50 mM HEPES buffer containing 1 mM MgCl2, 2 mM CaCl2, and 5 mM KCl, at pH 7.2. The assay tube also contained a chosen concentration of the peptides of this invention, for determining inhibition of the binding of ^125I-NDP-MSH to its receptor. Non-specific binding was measured by complete inhibition of binding of ^125I-NDP-MSH in the assay in the presence of 1 μM α-MSH. Incubation was for 90 minutes at 37° C., after which the assay mixture was filtered and the membranes washed three times with ice cold buffer. The filter was dried and counted in a gamma counter for remaining radioactivity bound to the membranes. 100% specific binding was defined as the difference in radioactivity (cpm) bound to cell membranes in the absence and presence of 1 μM α-MSH. The cpm obtained in the presence of peptides of this invention were normalized with respect to 100% specific binding to determine the percent inhibition of ^125I-NDP-MSH binding. Each assay was conducted in triplicate.\n(§2) The binding of the peptides of Examples 1 to 13, inclusive, to melanocortin receptors was evaluated, with results shown on Table 1. Relative binding was determined by competitive inhibition using an α-MSH analog, iodinated NDP-MSH. B16-Fl mouse melanoma cells were used as the source of MC1 receptors and HEK 293 cells, transfected with human melanocortin receptor sequences, were used as the source of MC3, MC4 and MC5 receptors. A standard competitive binding assay protocol as described above was followed, using ^125I-NDP-MSH as the radioligand. A “0” percent inhibition was assigned when the raw percent inhibition, as an average of at least triplicate measures, was between −10% and 10%; in the majority of instances, the raw percent inhibition was between −10% and 0% inhibition."}, "hMC5-R": {"biological_target": "T2, hMC5-R (Homo sapiens, UniProt P33032)", "T2 construct": "expressed in transfected cells; host or cells: HEK 293 cells (membranes)", "T2 sequence (P33032 whole entry)": "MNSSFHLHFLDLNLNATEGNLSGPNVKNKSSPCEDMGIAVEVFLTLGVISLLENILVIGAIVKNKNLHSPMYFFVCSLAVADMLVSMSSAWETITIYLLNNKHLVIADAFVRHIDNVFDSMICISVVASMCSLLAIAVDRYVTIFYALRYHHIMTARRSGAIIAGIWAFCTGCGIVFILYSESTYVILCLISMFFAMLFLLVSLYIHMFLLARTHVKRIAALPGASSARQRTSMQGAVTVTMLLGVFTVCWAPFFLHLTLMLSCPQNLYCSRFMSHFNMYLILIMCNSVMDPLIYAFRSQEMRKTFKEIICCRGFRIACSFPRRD", "assay": "Competitive inhibition binding assay with 125I-NDP-MSH, MC5 receptor", "conditions": "10 μM peptide, 0 assigned when raw inhibition between −10% and 10%, read-out: % Inhibition at 10 μM concentration at MC5-Receptor", "description": "as §1, §2"}, "[2]": {"tested_on": "panel of known central and peripheral receptors and neurotransmitters, ion channels and enzymes systems", "assay": "Receptor specificity screening panel", "format": "binding", "conditions": "10 μM concentration", "description": "The peptide NH2—(CH2)6CO-Ser(Bzl)-D-Phe(4-Cl)-Arg was tested at 10 μM concentration for binding to a panel of known central and peripheral receptors and neurotransmitters, including steroid receptors, neurotransmitter receptors, brain/gut peptide receptors, growth factor/hormone receptors and other receptors, and for interaction with a panel of known ion channels and enzymes systems."}, "hMC4-R": {"biological_target": "T3, hMC4-R (Homo sapiens, UniProt P32245)", "T3 construct": "expressed in transfected cells", "T3 sequence (P32245 whole entry)": "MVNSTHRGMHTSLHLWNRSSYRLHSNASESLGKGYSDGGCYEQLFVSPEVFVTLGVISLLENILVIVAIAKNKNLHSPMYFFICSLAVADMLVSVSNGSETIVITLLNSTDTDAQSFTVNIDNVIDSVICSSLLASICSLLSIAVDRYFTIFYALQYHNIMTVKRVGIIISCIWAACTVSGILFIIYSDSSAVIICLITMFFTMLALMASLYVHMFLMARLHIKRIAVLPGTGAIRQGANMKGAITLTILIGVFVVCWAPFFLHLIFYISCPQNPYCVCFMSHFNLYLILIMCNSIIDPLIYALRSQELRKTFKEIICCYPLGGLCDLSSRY", "assay": "Competitive inhibition binding assay with 125I-NDP-MSH, MC4 receptor", "conditions": "10 μM peptide, 0 assigned when raw inhibition between −10% and 10%, read-out: % Inhibition at 10 μM concentration at MC4-Receptor", "description": "as §1, §2"}, "male Sprague-Dawley rats": {"tested_on": "male Sprague-Dawley rats", "assay": "Induction of penile erections in male rats", "format": "in vivo, rat", "description": "The ability of the peptides of Examples 1 to 13 to induce penile erection in male rats was evaluated. Male Sprague-Dawley rats weighing 200-250 g were kept on a 12 hour on/off light cycle with food and water ad libitum. All behavioral studies were performed between 10 a.m. and 5 p.m. Groups of 4-8 rats were treated with peptides at a variety of doses via intravenous administration. Immediately after administration, rats were placed into individual polystyrene cages (27 cm long, 16 cm wide, and 25 cm high) for behavioral observation.\nThe efficacious dose of NH2—(CH2)6CO-Ser(Bzl)-D-Phe(4-Cl)-Arg, made as in Example 1 above, to induce penile erection in Sprague Dawley rats by intravenous dosing and oral administration was determined. […] NH2—(CH2)6CO-Ser(Bzl)-D-Phe(4-Cl)-Arg was efficacious at doses as low as 0.1 to 1 μg/kg of body weight when administered by oral means, and at doses lower than 0.001 μg/kg of body weight when administered by intravenous means.\nThe efficacious dose of NH2—(CH2)6—CO-Ser(Bzl)-D-Phe(4-Cl)-Arg(NO2), made as in Example 5 above, to induce penile erection in Sprague Dawley rats by intravenous dosing was determined. […] It was determined that NH2—(CH2)6—CO-Ser(Bzl)-D-Phe(4-Cl)-Arg(NO2) was efficacious at doses as low as 0.001 to 10 μg/kg of body weight when administered by intravenous means, with efficacy determined by induction of penile erection in 100% of animals. The optimal dose response was at 1 μg/kg of body weight. FIG. 1 depicts the dose response profile, with the error bars depicting standard deviation where n (the number of animals) is between 8 and 19, depending on the dose point.\nThe efficacious dose of NH2—(CH2)6—CO-Ser(Bzl)-D-Phe(4-Cl)-Arg(NO2), made as in Example 5 above, to induce penile erection in Sprague Dawley rats by intranasal administration using a micropipetor to deliver 25 μL of solution into one nostril was determined. […] It was determined that NH2—(CH2)6—CO-Ser(Bzl)-D-Phe(4-Cl)-Arg(NO2) was efficacious at doses between 0.01 μg/kg and 100 μg/kg of body weight when administered by intranasal means. The peak dose response was at an intranasal dose of 0.1 μg/kg of body weight."}, "male rats": {"tested_on": "male rats", "assay": "Induced penile erections after pre-administration of MC4-R antagonist SHU9119", "format": "in vivo, rat", "conditions": "SHU9119 approximately 5 minutes before peptide", "source_text": "It is known that MC4-R antagonists inhibit the erectile activity of MC4-R agonists in a dose dependent manner. Such antagonists include SHU9119, a nonselective melanocortin antagonist of the formula Ac-Nle-cyc/o(-Asp-His-D-Nal(2′)-Arg-Trp-Lys)-NH2 (Hruby V. J., Lu D., Sharma S. D., et al. Cyclic lactam alpha-melanotropin analogues of Ac-Nle^4-cyclo[Asp^5, D-Phe^7, Lys^10]-NH2 with bulky aromatic amino acids at position 7 show high antagonist potency and selectivity at specific melanocortin receptors. J Med Chem 38:3454-3461 (1995)). Antagonists such as SHU9119 are known to inhibit MT-II and other known melanocortin receptor-specific agonists that induce erectile activity. SHU9119 was administered to male rats approximately 5 minutes before administration of either NH2—(CH2)6CO-Ser(Bzl)-D-Phe(4-Cl)-Arg or NH2—(CH2)6CO-Ser(Bzl)-D-Phe(4-Cl)-Arg-Trp-NH2, with Ac-Nle-cyc/o(Asp-His-D-Phe-Arg-Trp-Lys)-OH, a known MC4-R agonist, as a positive control."}, "hMC3-R": {"biological_target": "T4, hMC3-R (Homo sapiens, UniProt P41968)", "T4 construct": "expressed in transfected cells; host or cells: HEK 293 cells (membranes)", "T4 sequence (P41968 whole entry)": "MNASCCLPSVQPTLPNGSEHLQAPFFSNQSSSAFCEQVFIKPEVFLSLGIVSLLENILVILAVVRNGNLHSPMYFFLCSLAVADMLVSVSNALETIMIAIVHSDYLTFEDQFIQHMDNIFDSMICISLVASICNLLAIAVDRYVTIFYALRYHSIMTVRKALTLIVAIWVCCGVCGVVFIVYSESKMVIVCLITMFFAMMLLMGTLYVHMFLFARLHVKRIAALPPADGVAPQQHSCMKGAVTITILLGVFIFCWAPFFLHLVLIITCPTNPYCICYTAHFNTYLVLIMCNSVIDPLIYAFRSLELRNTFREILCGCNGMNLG", "assay": "Competitive inhibition binding assay with 125I-NDP-MSH, MC3 receptor", "conditions": "10 μM peptide, 0 assigned when raw inhibition between −10% and 10%, read-out: % Inhibition at 10 μM concentration at MC3-Receptor", "description": "as §1, §2"}},
  "note": "Where a SMILES comes first, the peptide text is derived from it. [ ]: non-standard residue; d: D form. The star is where a group is joined. dPhe(4-Cl) = N[C@H](Cc1ccc(Cl)cc1)C(=O)O; Ahp = NCCCCCCC(=O)O; Bn = c1ccc(C*)cc1",
  "data": [
    {"smiles": "N=C(N)NCCC[C@H](NC(=O)[C@@H](Cc1ccc(Cl)cc1)NC(=O)[C@H](COCc1ccccc1)NC(=O)CCCCCCN)C(=O)O", "note": "[NH2—(CH2)6—CO-Ser(Bzl)-D-Phe(4-Cl)-Arg, NH2—(CH2)6CO-Ser(Bzl)-D-Phe(4-Cl)-Arg] (H-[Ahp]S(Bn)[dPhe(4-Cl)]R-OH)", "values": [
      {"measurement": "inhibition at 10 µM", "setting": "[1]", "value": 0, "unit": "%"},
      {"measurement": "inhibition at 10 µM", "setting": "hMC5-R", "value": 0, "unit": "%"},
      {"measurement": "binding or activity at panel members", "setting": "[2]", "value": "No binding or activity"},
      {"measurement": "inhibition at 10 µM", "setting": "hMC4-R", "value": 0, "unit": "%"},
      {"measurement": "human dose for oral delivery, extrapolated (could be as low as)", "setting": "male Sprague-Dawley rats; extrapolated from rat to human, oral", "value": 1, "unit": "mg"},
      {"measurement": "efficacious dose to induce penile erection, intravenous", "setting": "male Sprague-Dawley rats; male Sprague Dawley rats, intravenous", "value": "lower than 0.001 μg/kg"},
      {"measurement": "oral dose at which peptide may be biologically active (as low as)", "setting": "male Sprague-Dawley rats; male rats, oral", "value": 250, "unit": "ng/kg"},
      {"measurement": "effect of SHU9119 pre-administration on induced erections", "setting": "male rats", "value": "resulted in erections at a rate equivalent to that obtained without pre-administration of SHU9119"},
      {"measurement": "inhibition at 10 µM", "setting": "hMC3-R", "value": 0, "unit": "%"}
    ]}
  ]
}
